Data set [1] in a line: Acid Resistance. Type of data set: physicochemical.
Data set [2] concerns Staphylococcus aureus. As to the kind of experiment: in vitro antibacterial activity, minimal inhibiting concentration, Staphylococcus aureus. Type of data set: cell-based. As to conditions: read-out: Minimal inhibiting concentration, Staphylococcus aureus. On the procedure: (§1) Specific nutrient agar plates are completely innoculated with the various test organisms. Filter paper discs are placed on the surface of the agar and wetted with 0.1 ml of a solution containing 10, 100 and 1,000 micrograms of the test compound. Zones of inhibition of microbial growth are used to indicate the antibacterial activity of the test compound against the various test organisms employed.
(§2) The following table summarizes the in vitro activity in terms of a concentration required to inhibit the growth of various typical bacteria for the following representative compounds: 6-[2-(2-oxo-1-pyridinyl)acetylamino]penicillanic acid, sodium salt (1), 7-[2-(2-oxo-1-pyridinyl)acetylamino]desacetoxycephalosporanic acid, sodium salt (2), 6-[2-(6-methyl-2-oxo-1-pyridinyl)acetylamino]pencillanic acid (3), 6-[2-(2-oxo-1-pyridinyl)-2-methylacetylamino]penicillanic acid (4), 6-[2-(5-chloro-2-oxo-1-pyridinyl)acetylamino]penicillanic acid (5), 6-[2-(5-nitro-2-oxo-1-pyridinyl)acetylamino]penicillanic acid (6), 6-[ 2-(5-amino-2-oxo-1-pyridinyl)acetylamino]penicillanic acid (7), 6-[2-(3-methoxy-2-oxo-1-pyridinyl)acetylamino]penicillanic acid (8), and 7-[2-(2-oxo-1-pyridinyl)acetylamino]cephalosporanic acid (9).

Data set [3] deals with Streptococcus pyogenes. As to the kind of experiment: in vitro antibacterial activity, minimal inhibiting concentration, Streptococcus pyogenes. The class given is cell-based. As to conditions: read-out: Minimal inhibiting concentration, Streptococcus pyogenes. On the procedure: as §1, §2
Data set [4] deals with (Penicillinase Producing) Staphylococcus aureus. As to the kind of experiment: in vitro antibacterial activity, minimal inhibiting concentration, penicillinase producing Staphylococcus aureus. Type of data set: cell-based. The settings on record: read-out: Minimal inhibiting concentration, (Penicillinase Producing) Staphylococcus aureus. On the procedure:
as §1, §2

Data set [5] has as its system Salmonella schottmuelleri. As to the kind of experiment: in vitro antibacterial activity, minimal inhibiting concentration, Salmonella schottmuelleri. Type of data set: cell-based. As to conditions: read-out: Minimal inhibiting concentration, Salmonella schottmuelleri. On the procedure:
as §1, §2

The mark [6] stands for this setting: in vitro, filter paper discs on nutrient agar, 0.1 ml of solution containing 10, 100 and 1,000 micrograms.
The mark [7] stands for this setting: penicillinase producing strain, in vitro, filter paper discs on nutrient agar, 0.1 ml of solution containing 10, 100 and 1,000 micrograms.

The text below walks through data of patent US3956287A, “7-[(2-Oxo-1-pyridinyl)acylamino]cephalosporin derivatives” (Richardson-Merrell Inc., priority 1973, dated 1976).

Each structure is given as a SMILES string. Values after ≈ are worked out from the molar mass of the structure shown. Counter-ions that a name gives are not always drawn. Like-named read-outs stand apart in the source and are kept apart here. Bounds are passed on as bounds.

For the compound `CC1(C)S[C@@H]2C(NC(=O)Cn3ccccc3=O)C(=O)N2[C@H]1C(=O)[O-].[Na+]` (some centres unmarked) [Compound 1, 6-[2-(2-oxo-1-pyridinyl)acetylamino]penicillanic acid, sodium salt], in data set [1], the “Acid Resistance” value is “Yes”. Besides, the MIC is 10 µg/mL in data set [2], 10 µg/mL in data set [3], 1000 µg/mL in data set [4] and 1000 µg/mL in data set [5].
Take `CC1=C(C(=O)O)N2C(=O)C(NC(=O)Cn3ccccc3=O)C2SC1` (centres unmarked) [Compound 2, 7-[2-(2-oxo-1-pyridinyl)acetylamino]desacetoxycephalosporanic acid, sodium salt]: the “Acid Resistance” value in data set [1] is listed as “Yes”. The MIC in data set [2] (setting [6]) is 1000 µg/mL; in data set [3] (setting [6]), 1000 µg/mL; in data set [4] (setting [7]), above 1000 µg/mL; in data set [5] (setting [6]), above 1000 µg/mL.
Turning to `Cc1cccc(=O)n1CC(=O)NC1C(=O)N2C1SC(C)(C)C2C(=O)O` (centres unmarked) [Compound 3, 6-[2-(6-methyl-2-oxo-1-pyridinyl)acetylamino]pencillanic acid], in data set [1], the “Acid Resistance” value is given as “Yes”. Moreover, the MIC in data set [2] (setting [6]) came out at 10 µg/mL (≈ 27.4 µM); in data set [3] (setting [6]) it was 1000 µg/mL (≈ 2740 µM); in data set [4] (setting [7]), 1000 µg/mL (≈ 2740 µM); in data set [5] (setting [6]), 1000 µg/mL (≈ 2740 µM).
Consider `CC(C(=O)NC1C(=O)N2[C@@H]1SC(C)(C)[C@@H]2C(=O)O)n1ccccc1=O` (some centres unmarked) [Compound 4, 6-[2-(2-oxo-1-pyridinyl)-2-methylacetylamino]penicillanic acid], for which, in data set [1], the “Acid Resistance” value was “Weak”. For the same compound, the MIC in data set [2] (setting [6]), in data set [3] (setting [6]), in data set [4] (setting [7]) and in data set [5] (setting [6]) was 1000 µg/mL (≈ 2740 µM) in each case.
As to `CC1(C)S[C@@H]2C(NC(=O)Cn3cc(Cl)ccc3=O)C(=O)N2[C@H]1C(=O)O` (some centres unmarked) [Compound 5, 6-[2-(5-chloro-2-oxo-1-pyridinyl)acetylamino]penicillanic acid], in data set [1], the “Acid Resistance” value was “Yes”. Besides, the MIC in data set [2] (setting [6]) was 10 µg/mL (≈ 25.9 µM); in data set [3] (setting [6]) it was 1000 µg/mL (≈ 2590 µM); in data set [4] (setting [7]), above 1000 µg/mL; in data set [5] (setting [6]), 1000 µg/mL (≈ 2590 µM).
As to `CC1(C)S[C@@H]2C(NC(=O)Cn3cc([N+](=O)[O-])ccc3=O)C(=O)N2[C@H]1C(=O)O` (some centres unmarked) [Compound 6, 6-[2-(5-nitro-2-oxo-1-pyridinyl)acetylamino]penicillanic acid], the “Acid Resistance” value in data set [1] is given as “Yes”. Moreover, the MIC was 10 µg/mL (≈ 25.2 µM) in data set [2] (setting [6]), above 1000 µg/mL in data set [3] (setting [6]), above 1000 µg/mL in data set [4] (setting [7]) and 1000 µg/mL (≈ 2520 µM) in data set [5] (setting [6]).
`CC1(C)S[C@@H]2C(NC(=O)Cn3cc(N)ccc3=O)C(=O)N2[C@H]1C(=O)O` (some centres unmarked) [Compound 7, 6-[2-(5-amino-2-oxo-1-pyridinyl)acetylamino]penicillanic acid]: in data set [1], the “Acid Resistance” value is recorded as “Yes”. Also, the MIC was 10 µg/mL (≈ 27.3 µM) in data set [2] (setting [6]), above 1000 µg/mL in data set [3] (setting [6]), above 1000 µg/mL in data set [4] (setting [7]) and 1000 µg/mL (≈ 2730 µM) in data set [5] (setting [6]).
For the compound `COc1cccn(CC(=O)NC2C(=O)N3[C@@H]2SC(C)(C)[C@@H]3C(=O)O)c1=O` (some centres unmarked) [Compound 8, 6-[2-(3-methoxy-2-oxo-1-pyridinyl)acetylamino]penicillanic acid], in data set [1], the “Acid Resistance” value is reported as “Yes”. The MIC in data set [2] (setting [6]) was 10 µg/mL (≈ 26.2 µM); in data set [4] (setting [7]) it was 1000 µg/mL (≈ 2620 µM); in data set [5] (setting [6]), 1000 µg/mL (≈ 2620 µM).
Regarding `CC(=O)OCC1=C(C(=O)O)N2C(=O)C(NC(=O)Cn3ccccc3=O)C2SC1` (centres unmarked) [Compound 9, 7-[2-(2-oxo-1-pyridinyl)acetylamino]cephalosporanic acid], the “Acid Resistance” value in data set [1] is given as “Yes”. Moreover, the MIC in data set [2] (setting [6]) was 10 µg/mL (≈ 24.5 µM); in data set [3] (setting [6]) it was 10 µg/mL (≈ 24.5 µM); in data set [4] (setting [7]), 1000 µg/mL (≈ 2450 µM); in data set [5] (setting [6]), 100 µg/mL (≈ 245 µM).
